In one assay the target is T1, Type I 5α-reductase (Homo sapiens, UniProt P18405).
T1 construct: made in house; host or cells: COS7 cells (ATCC, CRL 1651), transient transfection with pSG5; 100,000×g pellet of the lysate
T1 sequence (P18405 1-259): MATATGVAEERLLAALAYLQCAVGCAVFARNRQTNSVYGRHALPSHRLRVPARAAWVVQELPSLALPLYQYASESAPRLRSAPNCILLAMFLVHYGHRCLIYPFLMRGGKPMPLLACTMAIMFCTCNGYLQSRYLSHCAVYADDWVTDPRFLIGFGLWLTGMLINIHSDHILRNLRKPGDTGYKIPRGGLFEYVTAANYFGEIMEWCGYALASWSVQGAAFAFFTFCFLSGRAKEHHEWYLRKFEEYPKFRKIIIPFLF
As to the kind of experiment: Inhibition of type I 5α-reductase (14C-testosterone to dihydrotestosterone, transfected COS7 cell lysate). The assay is classed as biochemical. The text has this:
(§1) The coding sequences (complementary deoxyribonucleic acids: cDNAs) of 5α-reductase I and of 5α-reductase II were cloned into the eukaryotic expression vector pSG5 (Stratagene). The enzymes were overexpressed after transient transfection of COS7 cells (ATCC, CRL 1651). The 5α-reductase I and 5α-reductase II cDNAs were obtained by reverse transcription and polymerase chain reaction (PCR) using specific primers from human testicle total RNA (marketed by Clontech).
The primers (SEQ ID NOS.: 1 and 2) used to obtain the 5α-reductase I cDNA were:
+strand: 5′[…] 3′,
−strand: 5′[…] 3′.
(§2) The 5α-reductase I cDNA obtained was inserted, by standard genetic engineering techniques, into the BamHI site of pSG5 and the 5α-reductase II cDNA obtained was inserted into the EcoRI site (see Maniatis et al., Molecular Cloning, Cold Spring Harbor, 1989). […]
(§3) The reaction mixtures were then deposited directly on a silica plate (HPTLC, 60F 254, Merck) and subjected to chromatography (solvent=10% diethyl ether, 90% dichloromethane). They were then analyzed by digital autoradiography (Digital Autoradiography, Berthold).
(§4) The inhibition of the activity of the isoenzymes was measured by calculating the percentage of dihydrotestosterone formed from ^14C-testosterone relative to an untreated control.

Another assay addresses T2, Type II 5α-reductase (Homo sapiens, UniProt P31213).
T2 construct: made in house; host or cells: COS7 cells (ATCC, CRL 1651), transient transfection with pSG5; 100,000×g pellet of the lysate
T2 sequence (P31213 1-254): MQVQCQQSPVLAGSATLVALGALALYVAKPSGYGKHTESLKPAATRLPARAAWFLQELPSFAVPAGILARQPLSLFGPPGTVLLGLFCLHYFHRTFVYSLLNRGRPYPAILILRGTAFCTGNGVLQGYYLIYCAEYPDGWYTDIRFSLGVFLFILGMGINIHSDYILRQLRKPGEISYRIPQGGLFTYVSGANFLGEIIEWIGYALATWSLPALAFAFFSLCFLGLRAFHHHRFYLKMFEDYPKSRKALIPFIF
As to the kind of experiment: Inhibition of type II 5α-reductase (14C-testosterone to dihydrotestosterone, transfected COS7 cell lysate). The assay is classed as biochemical.
Text: as §1
The primers (SEQ ID NOS.: 3 and 4) used to obtain the 5α-reductase II cDNA were:
+strand: 5′GCGATGCAGGTTCAGTG 3′,
−strand: 5′ATTGTGGGAGCTCTGCT 3′.
as §2, §3, §4

pIC50: −log10 of the molar value.

Data on 1 compound can be found in patent US6541507B1, “Indolecarboxylic compounds for inducing/stimulating hair growth and/or retarding hair loss” (Societe L'Oreal S.A., priority 1999, dated 2003).

What is called pIC50 is the IC50 on a negative log10 scale, so that one unit is a factor of ten.

`COc1cc(OC)c2cc(C(=O)O)[nH]c2c1` [4,6-dimethoxyindole-2-carboxylic acid]: the pIC50 was 4.30 at Type I 5α-reductase (40 mM pH 6.5 phosphate buffer, 1 nM 14C-testosterone, 5 mM NADPH, 50 minutes at 37° C.) and less than 4.30 against Type II 5α-reductase (40 mM pH 5.5 citrate buffer, 1 nM 14C-testosterone, 5 mM NADPH, 50 minutes at 37° C.). For the same compound, at Type I 5α-reductase (statement in words), the “inhibitory effect on the 5α-reductases (type I)” value is on record as “no inhibitory effect”. Also, the “inhibitory effect on the 5α-reductases (type II)” value at Type II 5α-reductase (statement in words) was “no inhibitory effect”.
